Experimental data reported in US20260365670A1, “EGFR INHIBITORS AND USES THEREOF” (DIZAL (JIANGSU) PHARMACEUTICAL CO., LTD., priority 2022, published 2026).
Where two headings read alike, the source gives them in different places.

Columns and labels:
EGFR (C797S L858R) = target: T1, EGFR (C797S L858R) (Homo sapiens, UniProt P00533, C797S/L858R); test: Inhibition of EGFR (C797S L858R) biochemical enzymatic activity (HTRF); settings: EGFR (C797S L858R), 1 mM ATP, 1 h at room temperature, read-out: IC50 @L858-C797S
T1 construct: purchased signalchem
T1 sequence (P00533 25-1210 C797S/L858R): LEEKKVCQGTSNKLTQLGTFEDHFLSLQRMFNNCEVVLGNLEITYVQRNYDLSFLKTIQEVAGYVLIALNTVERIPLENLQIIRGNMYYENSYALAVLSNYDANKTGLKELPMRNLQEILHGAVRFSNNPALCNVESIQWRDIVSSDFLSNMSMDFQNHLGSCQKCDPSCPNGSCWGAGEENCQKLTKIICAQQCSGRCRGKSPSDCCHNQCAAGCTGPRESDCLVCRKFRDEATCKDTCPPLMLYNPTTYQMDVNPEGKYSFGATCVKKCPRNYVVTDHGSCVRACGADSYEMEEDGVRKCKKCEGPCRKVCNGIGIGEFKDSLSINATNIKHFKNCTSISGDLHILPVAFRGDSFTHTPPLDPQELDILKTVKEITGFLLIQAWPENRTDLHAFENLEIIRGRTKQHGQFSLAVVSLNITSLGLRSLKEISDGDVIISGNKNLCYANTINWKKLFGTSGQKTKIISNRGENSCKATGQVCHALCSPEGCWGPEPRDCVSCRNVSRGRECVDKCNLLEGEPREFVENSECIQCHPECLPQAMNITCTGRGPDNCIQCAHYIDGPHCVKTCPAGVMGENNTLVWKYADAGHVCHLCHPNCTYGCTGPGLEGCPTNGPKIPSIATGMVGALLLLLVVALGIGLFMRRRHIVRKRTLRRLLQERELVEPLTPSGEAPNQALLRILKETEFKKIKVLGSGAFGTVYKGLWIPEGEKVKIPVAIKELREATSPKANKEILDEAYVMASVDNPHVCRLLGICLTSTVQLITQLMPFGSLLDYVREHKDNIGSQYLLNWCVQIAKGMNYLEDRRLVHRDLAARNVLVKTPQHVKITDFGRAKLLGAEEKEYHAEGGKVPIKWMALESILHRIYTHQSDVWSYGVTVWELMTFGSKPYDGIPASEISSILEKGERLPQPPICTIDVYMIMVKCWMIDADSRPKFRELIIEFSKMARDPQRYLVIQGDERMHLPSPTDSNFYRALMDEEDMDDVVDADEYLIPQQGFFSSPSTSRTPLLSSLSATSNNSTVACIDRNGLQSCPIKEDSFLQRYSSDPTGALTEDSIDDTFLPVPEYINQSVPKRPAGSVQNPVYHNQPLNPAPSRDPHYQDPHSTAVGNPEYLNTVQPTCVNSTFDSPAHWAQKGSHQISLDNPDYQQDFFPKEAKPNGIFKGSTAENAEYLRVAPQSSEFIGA
Procedure, shortened: (§1)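 HTRF kinase assay: each EGFR enzyme phosphorylated 1 μM biotinylated TK substrate with 1 mM ATP in buffer containing 5 mM MgCl2, 1 mM MnCl2, 0.01% CHAPS, 1 mM DTT, 0.5% DMSO. After 1 h at room temperature, EDTA detection mix stopped the reaction. IC50 came from a four-parameter logistic fit of the 665/615 nm ratio.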

EGFR L858R/T790M = target: T2, EGFR L858R/T790M (Homo sapiens, UniProt P00533, L858R/T790M); test: Inhibition of EGFR L858R/T790M biochemical enzymatic activity (HTRF); settings: EGFR L858R/T790M, 1 mM ATP, 1 h at room temperature, read-out: IC50 @L858R-T790M
T2 construct: purchased Carna Bio
T2 sequence (P00533 25-1210 T790M/L858R): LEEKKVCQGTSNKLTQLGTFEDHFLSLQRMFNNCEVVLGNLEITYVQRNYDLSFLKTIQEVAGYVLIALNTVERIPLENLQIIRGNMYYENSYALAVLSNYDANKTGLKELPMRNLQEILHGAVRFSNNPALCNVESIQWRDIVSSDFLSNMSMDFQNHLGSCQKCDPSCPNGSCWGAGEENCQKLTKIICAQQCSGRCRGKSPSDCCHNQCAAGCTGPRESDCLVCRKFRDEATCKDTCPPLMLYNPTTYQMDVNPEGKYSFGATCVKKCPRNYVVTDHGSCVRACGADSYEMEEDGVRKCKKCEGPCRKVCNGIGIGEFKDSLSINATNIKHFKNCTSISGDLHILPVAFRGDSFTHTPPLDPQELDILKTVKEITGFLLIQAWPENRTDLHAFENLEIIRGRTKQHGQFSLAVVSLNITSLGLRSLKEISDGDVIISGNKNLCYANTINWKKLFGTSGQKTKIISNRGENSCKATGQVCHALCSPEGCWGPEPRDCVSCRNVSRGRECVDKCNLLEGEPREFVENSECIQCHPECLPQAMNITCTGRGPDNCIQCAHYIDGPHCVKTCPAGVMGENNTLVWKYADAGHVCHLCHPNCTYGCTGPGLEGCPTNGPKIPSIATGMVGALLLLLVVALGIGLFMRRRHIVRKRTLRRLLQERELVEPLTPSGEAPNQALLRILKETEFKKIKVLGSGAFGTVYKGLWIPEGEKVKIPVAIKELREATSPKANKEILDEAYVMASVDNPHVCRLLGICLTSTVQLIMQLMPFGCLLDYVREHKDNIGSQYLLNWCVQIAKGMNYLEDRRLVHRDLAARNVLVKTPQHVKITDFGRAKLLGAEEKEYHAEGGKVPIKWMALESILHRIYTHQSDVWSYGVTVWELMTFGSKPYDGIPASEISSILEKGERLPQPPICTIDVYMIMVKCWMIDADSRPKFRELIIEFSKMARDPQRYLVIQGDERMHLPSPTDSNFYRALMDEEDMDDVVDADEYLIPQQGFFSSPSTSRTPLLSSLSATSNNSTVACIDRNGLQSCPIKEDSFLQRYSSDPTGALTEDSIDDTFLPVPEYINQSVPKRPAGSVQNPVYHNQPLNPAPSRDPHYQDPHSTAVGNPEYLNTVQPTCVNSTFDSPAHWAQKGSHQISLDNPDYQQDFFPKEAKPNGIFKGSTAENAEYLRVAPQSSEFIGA
Procedure, shortened: as §1

EGFR wild type = target: T3, EGFR wild type (Homo sapiens, UniProt P00533); test: Inhibition of EGFR wild type biochemical enzymatic activity (HTRF); settings: EGFR wild type, 1 mM ATP, 1 h at room temperature, read-out: IC50 @WT
T3 construct: purchased Carna Bio
T3 sequence (P00533 25-1210): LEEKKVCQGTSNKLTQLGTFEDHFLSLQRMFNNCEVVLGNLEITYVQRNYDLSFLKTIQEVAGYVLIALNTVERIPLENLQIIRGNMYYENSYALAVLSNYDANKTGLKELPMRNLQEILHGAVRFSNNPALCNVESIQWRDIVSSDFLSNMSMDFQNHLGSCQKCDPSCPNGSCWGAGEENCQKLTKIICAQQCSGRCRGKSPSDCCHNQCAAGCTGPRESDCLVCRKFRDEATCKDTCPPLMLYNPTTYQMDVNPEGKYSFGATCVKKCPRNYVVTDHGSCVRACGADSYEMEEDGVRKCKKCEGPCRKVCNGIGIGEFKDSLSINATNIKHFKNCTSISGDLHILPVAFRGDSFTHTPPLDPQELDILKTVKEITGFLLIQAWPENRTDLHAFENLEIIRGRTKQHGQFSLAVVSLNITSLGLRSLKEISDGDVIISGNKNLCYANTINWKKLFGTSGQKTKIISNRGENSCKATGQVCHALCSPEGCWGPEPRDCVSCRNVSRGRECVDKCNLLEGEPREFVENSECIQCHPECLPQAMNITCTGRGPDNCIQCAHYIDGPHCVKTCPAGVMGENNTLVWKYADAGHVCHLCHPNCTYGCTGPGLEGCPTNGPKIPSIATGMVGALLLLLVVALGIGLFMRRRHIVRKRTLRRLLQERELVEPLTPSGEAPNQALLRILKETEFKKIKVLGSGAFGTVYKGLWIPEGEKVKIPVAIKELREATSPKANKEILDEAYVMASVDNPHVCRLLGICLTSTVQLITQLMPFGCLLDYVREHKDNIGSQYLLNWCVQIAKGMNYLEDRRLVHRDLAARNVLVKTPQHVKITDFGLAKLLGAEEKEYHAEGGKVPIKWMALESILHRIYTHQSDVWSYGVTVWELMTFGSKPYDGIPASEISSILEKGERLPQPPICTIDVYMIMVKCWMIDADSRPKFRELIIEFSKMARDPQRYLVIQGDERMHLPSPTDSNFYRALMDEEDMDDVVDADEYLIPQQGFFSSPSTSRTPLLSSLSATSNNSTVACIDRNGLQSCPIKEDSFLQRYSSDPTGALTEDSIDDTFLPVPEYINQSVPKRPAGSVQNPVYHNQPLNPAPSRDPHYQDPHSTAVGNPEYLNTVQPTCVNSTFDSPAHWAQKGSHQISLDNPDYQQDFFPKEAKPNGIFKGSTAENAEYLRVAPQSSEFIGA
Procedure, shortened: as §1

EGFR[T790M/C797S/L858R] = target: T4, EGFR[T790M/C797S/L858R] (Homo sapiens, UniProt P00533, C797S/L858R/T790M); test: Inhibition of EGFR[T790M/C797S/L858R] biochemical enzymatic activity (HTRF); settings: EGFR[T790M/C797S/L858R], 1 mM ATP, 1 h at room temperature, read-out: IC50 @T790M- C797S - L858R
T4 construct: purchased Carna Bio
Procedure, shortened: as §1

A-431 = test: Cell proliferation assay, A-431 cells (GI50, Table 6); type: cell-based
EGFR (d746-750 C797S) = target: T5, EGFR (d746-750 C797S) (Homo sapiens, UniProt P00533, C797S/DEL746-750); test: Inhibition of EGFR (d746-750 C797S) biochemical enzymatic activity (HTRF); settings: EGFR (d746-750 C797S), 1 mM ATP, 1 h at room temperature, read-out: IC50 @Del19-C797S
T5 construct: purchased signalchem
Procedure, shortened: as §1

EGFR L858R = target: T6, EGFR L858R (Homo sapiens, UniProt P00533, L858R); test: Inhibition of EGFR L858R biochemical enzymatic activity (HTRF); settings: 1 mM ATP, 1 h at room temperature, read-out: IC50 @L858R
T6 construct: purchased Carna Bio
Procedure, shortened: as §1

[1] = target: T7, EGFR[T790M/C797S/d746-750] (Homo sapiens, UniProt P00533, C797S/DEL746-750/T790M); test: Inhibition of EGFR[T790M/C797S/d746-750] biochemical enzymatic activity (HTRF); settings: EGFR[T790M/C797S/d746-750], 1 mM ATP, 1 h at room temperature, read-out: IC50 @T790M - C797S - Del19
T7 construct: purchased Carna Bio
T7 sequence (P00533 with tags, fused parts or gaps DEL746-750/T790M/C797S limits assumed): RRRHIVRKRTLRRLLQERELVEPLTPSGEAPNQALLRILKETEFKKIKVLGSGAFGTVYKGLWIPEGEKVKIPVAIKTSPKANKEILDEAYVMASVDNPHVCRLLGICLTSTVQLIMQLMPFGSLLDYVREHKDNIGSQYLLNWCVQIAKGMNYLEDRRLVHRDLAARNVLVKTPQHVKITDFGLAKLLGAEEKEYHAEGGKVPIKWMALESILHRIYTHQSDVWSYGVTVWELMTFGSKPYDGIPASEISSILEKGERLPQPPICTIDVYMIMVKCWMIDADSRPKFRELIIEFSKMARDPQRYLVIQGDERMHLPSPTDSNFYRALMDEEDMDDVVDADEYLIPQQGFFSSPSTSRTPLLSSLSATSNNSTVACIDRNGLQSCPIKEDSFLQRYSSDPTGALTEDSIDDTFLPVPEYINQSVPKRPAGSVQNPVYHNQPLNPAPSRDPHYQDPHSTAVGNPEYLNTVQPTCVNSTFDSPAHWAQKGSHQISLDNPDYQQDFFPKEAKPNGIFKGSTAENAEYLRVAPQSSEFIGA
Procedure, shortened: as §1

EGFR Exon19Del/T790M = target: T8, EGFR Exon19Del/T790M (Homo sapiens, UniProt P00533, DEL746-750/T790M); test: Inhibition of EGFR Exon19Del/T790M biochemical enzymatic activity (HTRF); settings: EGFR Exon19Del/T790M, 1 mM ATP, 1 h at room temperature, read-out: IC50 @Del19-T790M
T8 construct: purchased Carna Bio
Procedure, shortened: as §1

[2] = tested on: Ba/F3 cells expressing EGFR mutations; test: Cell proliferation assay, Ba/F3 cells expressing EGFR mutations (CellTiter-Glo, 72 hours); type: cell-based
Procedure, shortened: (§2)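 Cells are exposed to graded compound concentrations after overnight plating, using 500 PC-9 or 5000 Ba/F3 per well. Baseline-subtracted viability is compared with vehicle to give percent proliferation, then GI50.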

EGFR Exon19Del = target: T9, EGFR Exon19Del (Homo sapiens, UniProt P00533, DEL746-750); test: Inhibition of EGFR Exon19Del biochemical enzymatic activity (HTRF); settings: EGFR Exon19Del, 1 mM ATP, 1 h at room temperature, read-out: IC50 @Del19
T9 construct: purchased Carna Bio
T9 sequence (P00533 with tags, fused parts or gaps DEL746-750 limits assumed): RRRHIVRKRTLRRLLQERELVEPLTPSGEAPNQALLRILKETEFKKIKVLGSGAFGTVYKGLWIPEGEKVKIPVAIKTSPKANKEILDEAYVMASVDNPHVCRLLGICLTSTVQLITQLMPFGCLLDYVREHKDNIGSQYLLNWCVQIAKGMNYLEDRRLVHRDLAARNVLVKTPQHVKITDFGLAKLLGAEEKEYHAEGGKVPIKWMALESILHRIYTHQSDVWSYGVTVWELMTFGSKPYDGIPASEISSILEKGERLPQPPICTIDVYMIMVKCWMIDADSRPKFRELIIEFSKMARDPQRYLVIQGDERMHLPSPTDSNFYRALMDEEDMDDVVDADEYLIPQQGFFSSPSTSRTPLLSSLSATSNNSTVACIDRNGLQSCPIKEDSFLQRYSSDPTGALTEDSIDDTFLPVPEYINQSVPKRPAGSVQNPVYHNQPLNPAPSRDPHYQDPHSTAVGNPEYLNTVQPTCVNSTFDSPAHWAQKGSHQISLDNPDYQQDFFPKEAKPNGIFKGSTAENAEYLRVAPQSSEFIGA
Procedure, shortened: as §1

PC-9 = test: Cell proliferation assay, PC-9 cells (CellTiter-Glo, 72 hours); type: cell-based; settings: PC9 cells, read-out: GI50 PC9
Procedure, shortened: as §2

[3] = BaF3 cells, EGFR DEL19 - C797S, read-out: GI50 DEL19 - C797S/BaF3
[4] = BaF3 cells, EGFR DEL19 - T790-C797S, read-out: GI50 DEL19 - T790-C797S/BaF3
[5] = BaF3 cells, EGFR L858R - C797S, read-out: GI50 L858R - C797S/BaF3
[6] = BaF3 cells, EGFR L858R - T790-C797S, read-out: GI50 L858R - T790-C797S/BaF3
[7] = BaF3 cells, EGFR L858R - T790M, read-out: GI50 L858R - T790M/BaF3
[8] = BaF3 cells, EGFR L858R, read-out: GI50 L858R/BaF3
[9] = EGFR DEL19 - T790M, read-out: GI50 DEL19 - T790M
[10] = Homo sapiens, A-431, A-431 cells

| Compound | IC50 (EGFR (C797S L858R)) [nM] | IC50 (EGFR L858R/T790M) [nM] | IC50 (EGFR wild type) [nM] | IC50 (EGFR[T790M/C797S/L858R]) [nM] | IC50 (EGFR (d746-750 C797S)) [nM] | IC50 (EGFR L858R) [nM] | IC50 [1] [nM] | IC50 (EGFR Exon19Del/T790M) [nM] | GI50 [2, 3] [nM] | GI50 [2, 4] [nM] | GI50 [2, 5] [nM] | GI50 [2, 6] [nM] | GI50 [2, 7] [nM] | GI50 [2, 8] [nM] | GI50 [2, 9] [nM] | IC50 (EGFR Exon19Del) [nM] | GI50 (PC-9) [nM] | GI50 (A-431; [10]) [nM] | other results |
| --- | --- | --- | --- | --- | --- | --- | --- | --- | --- | --- | --- | --- | --- | --- | --- | --- | --- | --- | --- |
| Cc1cc2cc(n1)-c1cnn(C)c1OCCN1CC3CCC(C3)(C1)n1c(nc3ccc(N4CC(N5CCOCC5)C4)cc31)NC2=O (single isomer, unassigned) [Example B48A] | 2920 | > 5000 | > 5000 | > 5000 | 1020 | > 5000 | > 5000 | > 5000 | 114 | 172 | 426 | 34 | 168 | 846 | 140 | 2240 | 973 |  | GI50 (A-431; A-431 cells): 7000 nM |
| Cc1cc2cc(n1)-c1cnn(C)c1OCCN1CC3CCC(C3)(C1)n1c(nc3ccc(N(C)CCCN(C)C)cc31)NC2=O (single isomer, unassigned) [Example B45B] | 14 | 3.8 | 1020 | 1.4 | 2.4 | 46 | 1.7 | 2.8 | 2 | 2 | 4 | 2 | 2 | 11 | 2 | 5.3 | 10 | 1680 |  |
| Cc1cc2cc(n1)-c1cnn(C)c1OCCN1CC3CCC(C3)(C1)n1c(nc3ccccc31)NC2=O (stereo not drawn) [Example B8B, 15,21-dimethyl-23-oxa-2,9,11,16,20,21,26-heptaazaheptacyclo[24.4.1.1^{1,28}.1^{13,17}.0^{2,10}.0^{3,8}.0^{18,22}]tritriaconta-3,5,7,9,13,15,17(33),18(22),19-nonaen-12-one] | 200 | 1.3 | > 5000 | 1 | 4.2 | 469 | 0.98 | 0.95 |  |  |  |  |  |  |  | 14 |  | 2710 | GI50 ([2]; Mus musculus, BaF3, 72 h, BaF3 cells, EGFR DEL19 - C797S, read-out: GI50 DEL19 - C797S/BaF3): 4.8 nM; GI50 ([2]; Mus musculus, BaF3, 72 h, BaF3 cells, EGFR DEL19 - T790-C797S, read-out: GI50 DEL19 - T790-C797S/BaF3): 2.1 nM; GI50 ([2]; Mus musculus, BaF3, 72 h, BaF3 cells, EGFR L858R - C797S, read-out: GI50 L858R - C797S/BaF3): 53 nM; GI50 ([2]; Mus musculus, BaF3, 72 h, BaF3 cells, EGFR L858R - T790-C797S, read-out: GI50 L858R - T790-C797S/BaF3): 2.4 nM; GI50 ([2]; Mus musculus, BaF3, 72 h, BaF3 cells, EGFR L858R - T790M, read-out: GI50 L858R - T790M/BaF3): 8.6 nM; GI50 ([2]; Mus musculus, BaF3, 72 h, BaF3 cells, EGFR L858R, read-out: GI50 L858R/BaF3): 72 nM; GI50 ([2]; Mus musculus, BaF3, 72 h, EGFR DEL19 - T790M, read-out: GI50 DEL19 - T790M): 2.6 nM; GI50 (PC-9; Homo sapiens, PC-9, 72 h): 63 nM |
| Cc1cc2cc(n1)-c1cnn(C)c1OCCN1CC3CCC(C3)(C1)n1c(nc3ccc(N4CCN(C(C)C)CC4)cc31)NC2=O (single isomer, unassigned) [Example B57B] | 6 | 3.7 | 543 | 1.8 | 2.1 | 31 | 2.6 | 4.3 | 2 | 2 | 8 | 2 | 2 | 9 | 2 | 6.1 | 8 | 257 |  |
